In patent US11896591B2, “Compositions and methods for preparing and using mitochondrial uncouplers” (UNIVERSITY OF VIRGINIA PATENT FOUNDATION, priority 2017, dated 2024):

Tested on: whole cells
Test: Oxygen consumption rate (OCR) in whole cells, Seahorse XF-24 Flux Analyzer
Type: cell-based
Conditions: binned EC50 values; increase in oxygen consumption rate in whole cells
Description: Biological activities of the compounds synthesized is determined by determining increase in oxygen consumption rate (OCR).
OCR is measured using a Seahorse XF-24 Flux Analyzer (Seahorse Biosciences, North Billerica, MA). NMuLi, C2C12, and L6 cells are seeded in a Seahorse 24-well tissue culture plate at a density of 3.5×10^4 cells/well, isolated cardiomyocytes at a density of 4×10^4 cells/well, and human primary fibroblasts at a density of 1.1×10^4 cells/well. The cells are then allowed to adhere for 24 h. […] Compounds are injected during the assay and OCR is measured using 2 min measurement periods.
2-3 wells are used per condition and averaged over three plates (n=6-9). Statistical significance is determined by two-way ANOVA with Bonferroni's posttest.

| Structure (SMILES) | EC50 [µM] |
| --- | --- |
| FC(F)(F)c1ccc(Nc2nc3nonc3nc2Nc2cccc(C(F)(F)F)c2)cc1 [Compound 4x, N^5-(3-(trifluoromethyl)phenyl)-N^6-(4-(trifluoromethyl)phenyl)-[1,2,5]oxadiazolo[3,4-b]pyrazine-5,6-diamine] | < 5 |
| COC(=O)c1ccc(Nc2nc3nonc3nc2Nc2ccccc2F)cc1 [Compound 4y, Methyl 4-((6-((2-fluorophenyl)amino)-[1,2,5]oxadiazolo[3,4-b]pyrazin-5-yl)amino)benzoate] | < 5 |
| Oc1ccc(F)c(Nc2nc3nonc3nc2Nc2ccccc2F)c1 [Compound 4z, 4-Fluoro-3-((6-((2-fluorophenyl)amino)-[1,2,5]oxadiazolo[3,4-b]pyrazin-5-yl)amino)phenol] | > 20 |
| CNc1nc2nonc2nc1Nc1ccccc1F [Compound 7a, N^5-(2-fluorophenyl)-N^6-methyl-[1,2,5]oxadiazolo[3,4-b]pyrazine-5,6-diamine] | 5 to 20 |
| CCNc1nc2nonc2nc1Nc1ccccc1F [Compound 7b, N^5-ethyl-N^6-(2-fluorophenyl)-[1,2,5]oxadiazolo[3,4-b]pyrazine-5,6-diamine] | 5 to 20 |
| CCCNc1nc2nonc2nc1Nc1ccccc1F [Compound 7c, N^5-(2-fluorophenyl)-N^6-propyl-[1,2,5]oxadiazolo[3,4-b]pyrazine-5,6-diamine] | 5 to 20 |
| Fc1ccccc1Nc1nc2nonc2nc1NCCC(F)(F)F [Compound 7d, N^5-(2-fluorophenyl)-N^6-(3,3,3-trifluoropropyl)-[1,2,5]oxadiazolo[3,4-b]pyrazine-5,6-diamine] | > 20 |
| Fc1ccccc1Nc1nc2nonc2nc1NC1CCCCC1 [Compound 7f, N^5-cyclohexyl-N^6-(2-fluorophenyl)-[1,2,5]oxadiazolo[3,4-b]pyrazine-5,6-diamine] | 5 to 20 |
| Fc1ccccc1Nc1nc2nsnc2nc1Nc1ccccc1F [Compound 10, N^5,N^6-bis(2-fluorophenyl)-[1,2,5]thiadiazolo[3,4-b]pyrazine-5,6-diamine] | 5 to 20 |
| Fc1ccccc1Nc1nc2nc(C(F)(F)F)[nH]c2nc1Nc1ccccc1F [Compound 12a, N^5,N^6-bis(2-fluorophenyl)-2-(trifluoromethyl)-1H-imidazo[4,5-b]pyrazine-5,6-diamine] | 5 to 20 |
| Fc1ccc(C(F)(F)F)cc1Nc1nc2nc(C(F)(F)F)[nH]c2nc1Nc1cc(C(F)(F)F)ccc1F [Compound 12b, N^5,N^6-bis(2-fluoro-5-(trifluoromethyl)phenyl)-2-(trifluoromethyl)-1H-imidazo[4,5-b]pyrazine-5,6-diamine] | 5 to 20 |
| FC(F)(F)c1cc(Nc2nc3nc(C(F)(F)F)[nH]c3nc2Nc2cc(C(F)(F)F)cc(C(F)(F)F)c2)cc(C(F)(F)F)c1 [Compound 12d, N^5,N^6-bis(3,5-bis(trifluoromethyl)phenyl)-2-(trifluoromethyl)-1H-imidazo[4,5-b]pyrazine-5,6-diamine] | 5 to 20 |
| Fc1c(Nc2nc3nc(C(F)(F)F)[nH]c3nc2Nc2cccc(C(F)(F)F)c2F)cccc1C(F)(F)F [Compound 12e, N^5,N^6-bis(2-fluoro-3-(trifluoromethyl)phenyl)-2-(trifluoromethyl)-1H-imidazo[4,5-b]pyrazine-5,6-diamine] | 5 to 20 |
| Fc1cc(Nc2nc3nc(C(F)(F)F)[nH]c3nc2Nc2ccc(OC(F)(F)F)c(F)c2)ccc1OC(F)(F)F [Compound 12f, N^5,N^6-bis(3-fluoro-4-(trifluoromethoxy)phenyl)-2-(trifluoromethyl)-1H-imidazo[4,5-b]pyrazine-5,6-diamine] | 5 to 20 |
| Fc1cc(C(F)(F)F)ccc1Nc1nc2nc(C(F)(F)F)[nH]c2nc1Nc1ccc(C(F)(F)F)cc1F [Compound 12g, N^5,N^6-bis(2-fluoro-4-(trifluoromethyl)phenyl)-2-(trifluoromethyl)-1H-imidazo[4,5-b]pyrazine-5,6-diamine] | < 5 |
| Fc1cc(Nc2nc3nc(C(F)(F)F)[nH]c3nc2Nc2ccc(C(F)(F)F)c(F)c2)ccc1C(F)(F)F [Compound 12h, N^5,N^6-bis(3-fluoro-4-(trifluoromethyl)phenyl)-2-(trifluoromethyl)-1H-imidazo[4,5-b]pyrazine-5,6-diamine] | 5 to 20 |
| Fc1cc(F)cc(Nc2nc3nc(C(F)(F)F)[nH]c3nc2Nc2cc(F)cc(F)c2)c1 [Compound 12i, N^5,N^6-bis(3,5-difluorophenyl)-2-(trifluoromethyl)-1H-imidazo[4,5-b]pyrazine-5,6-diamine] | 5 to 20 |
| Fc1cccc(Nc2nc3nc(C(F)(F)F)[nH]c3nc2Nc2cccc(F)c2F)c1F [Compound 12j, N^5,N^6-bis(2,3-difluorophenyl)-2-(trifluoromethyl)-1H-imidazo[4,5-b]pyrazine-5,6-diamine] | < 5 |

| Structure (SMILES) | EC50 [µM] |
| --- | --- |
| Cc1ccc(Nc2nc3nc(C(F)(F)F)[nH]c3nc2Nc2ccc(C)cc2)cc1 [Compound 12k, N^5,N^6-di-p-tolyl-2-(trifluoromethyl)-1H-imidazo[4,5-b]pyrazine-5,6-diamine] | > 20 |
| FC(F)(F)c1nc2nc(Nc3ccccc3)c(Nc3ccccc3)nc2[nH]1 [Compound 12l, N^5,N^6-diphenyl-2-(trifluoromethyl)-1H-imidazo[4,5-b]pyrazine-5,6-diamine] | > 20 |
| FC(F)(F)Oc1ccc(Nc2nc3nc(C(F)(F)F)[nH]c3nc2Nc2ccc(OC(F)(F)F)cc2)cc1 [Compound 12m, N^5,N^6-bis(4-(trifluoromethoxy)phenyl)-2-(trifluoromethyl)-1H-imidazo[4,5-b]pyrazine-5,6-diamine] | 5 to 20 |
| COc1ccc(Nc2nc3nc(C(F)(F)F)[nH]c3nc2Nc2ccc(OC)cc2)cc1 [Compound 12n, N^5,N^6-bis(4-methoxyphenyl)-2-(trifluoromethyl)-1H-imidazo[4,5-b]pyrazine-5,6-diamine] | > 20 |
| Fc1cccc(Nc2nc3[nH]c(C(F)(F)F)nc3nc2Nc2ccccc2F)c1 [Compound 12o, N^5-(2-fluorophenyl)-N^6-(3-fluorophenyl)-2-(trifluoromethyl)-1H-imidazo[4,5-b]pyrazine-5,6-diamine] | 5 to 20 |
| Fc1ccccc1Nc1nc2nc(C(F)(F)F)[nH]c2nc1Nc1ccc(OC(F)(F)F)cc1 [Compound 12p, N^5-(2-fluorophenyl)-N^6-(4-(trifluoromethoxy)phenyl)-2-(trifluoromethyl)-1H-imidazo[4,5-b]pyrazine-5,6-diamine] | < 5 |
| Fc1ccccc1Nc1nc2nc(C(F)(F)F)[nH]c2nc1Nc1cc(C(F)(F)F)cc(C(F)(F)F)c1 [Compound 12q, N^5-(2-fluorophenyl)-N^6-(3,5-bis(trifluoromethyl)phenyl)-2-(trifluoromethyl)-1H-imidazo[4,5-b]pyrazine-5,6-diamine] | 5 to 20 |
| COc1ccc(Nc2nc3[nH]c(C(F)(F)F)nc3nc2Nc2ccccc2F)cc1 [Compound 12r, N^5-(2-fluorophenyl)-N^6-(4-methoxyphenyl)-2-(trifluoromethyl)-1H-imidazo[4,5-b]pyrazine-5,6-diamine] | > 20 |
| Fc1ccccc1Nc1nc2nc(C(F)(F)F)[nH]c2nc1Nc1ccccc1 [Compound 12s, N^5-(2-fluorophenyl)-N^6-phenyl-2-(trifluoromethyl)-1H-imidazo[4,5-b]pyrazine-5,6-diamine] | 5 to 20 |
| Fc1ccccc1Nc1nc2nc(C(F)(F)F)[nH]c2nc1Nc1cccc(C(F)(F)F)c1F [Compound 12t, N^5-(2-fluorophenyl)-N^6-(2-fluoro-3-(trifluoromethyl)phenyl)-2-(trifluoromethyl)-1H-imidazo[4,5-b]pyrazine-5,6-diamine] | < 5 |
| Cc1ccc(Nc2nc3[nH]c(C(F)(F)F)nc3nc2Nc2ccccc2F)cc1 [Compound 12u, N^5-(2-fluorophenyl)-N^6-(p-tolyl)-2-(trifluoromethyl)-1H-imidazo[4,5-b]pyrazine-5,6-diamine] | 5 to 20 |
| Fc1ccccc1Nc1nc2nc(C(F)(F)F)[nH]c2nc1NC1CCCCC1 [Compound 12v, N^5-(2-fluorophenyl)-N^6-cyclohexyl-2-(trifluoromethyl)-1H-imidazo[4,5-b]pyrazine-5,6-diamine] | > 20 |
| CCCNc1nc2[nH]c(C(F)(F)F)nc2nc1Nc1ccccc1F [Compound 12w, N^5-(2-fluorophenyl)-N^6-propyl-2-(trifluoromethyl)-1H-imidazo[4,5-b]pyrazine-5,6-diamine] | > 20 |
| Cn1c(C(F)(F)F)nc2nc(Nc3ccccc3F)c(Nc3ccccc3F)nc21 [Compound 13a, N^5,N^6-bis(2-fluorophenyl)-1-methyl-2-(trifluoromethyl)-imidazo[4,5-b]pyrazine-5,6-diamine] | > 20 |
| Cn1c(C(F)(F)F)nc2nc(Nc3cc(C(F)(F)F)ccc3F)c(Nc3cc(C(F)(F)F)ccc3F)nc21 [Compound 13b, N^5,N^6-bis(2-fluoro-5-(trifluoromethyl)phenyl)-1-methyl-2-(trifluoromethyl)-imidazo[4,5-b]pyrazine-5,6-diamine] | 5 to 20 |
| Cn1c(C(F)(F)F)nc2nc(Nc3ccccc3C(F)(F)F)c(Nc3ccccc3C(F)(F)F)nc21 [Compound 13c, N^5,N^6-bis(2-(trifluoromethyl)phenyl)-1-methyl-2-(trifluoromethyl)-imidazo[4,5-b]pyrazine-5,6-diamine] | 5 to 20 |
| Cn1c(C(F)(F)F)nc2nc(Nc3cc(C(F)(F)F)cc(C(F)(F)F)c3)c(Nc3cc(C(F)(F)F)cc(C(F)(F)F)c3)nc21 [Compound 13d, N^5,N^6-bis(3,5-bis(trifluoromethyl)phenyl)-1-methyl-2-(trifluoromethyl)-imidazo[4,5-b]pyrazine-5,6-diamine] | 5 to 20 |
| Cn1c(C(F)(F)F)nc2nc(Nc3cccc(C(F)(F)F)c3F)c(Nc3cccc(C(F)(F)F)c3F)nc21 [Compound 13e, N^5,N^6-bis(2-fluoro-3-(trifluoromethyl)phenyl)-1-methyl-2-(trifluoromethyl)-imidazo[4,5-b]pyrazine-5,6-diamine] | 5 to 20 |
